# Laboratory results published in patent US10101331B2, “Methods of evaluating patients using E-cadherin or vimentin” (AGIOS PHARMACEUTICALS, INC, priority 2012, dated 2018).
# Tests used:
# Format in all cases: cell-based
# LXF-289 = experiment: Lung cancer cell line panel screened for sensitivity to BPTES, 72 hr proliferation assay
# A427 cells = experiment: 72 hr proliferation assay in lines stably expressing empty vector, GAC or GAC-BR
# Protocol: A427 parent cells or lines stably expressing pLVX empty vector control (Con), wild-type GAC (GAC), or a BPTES-resistant GAC enzyme (GAC-BR) were treated with indicated concentrations of drugs in a 72 hr proliferation assay. […] Calculated p-values from student t-test, * (3×10^−8), **(10^−9), ^#(10^−7), ^##(2×10^−6).
# Levels of overexpression of the GAC WT and GAC-BR mutant were approximately 1.5-2.0 fold above endogenous GLS1 levels (FIG. 12).
# NCI-H1650 = experiment: Lung cancer cell line panel screened for sensitivity to BPTES, 72 hr proliferation assay
# Excerpt: (§1) Of these, 44 of the cell lines have been classified as non-small cell lung cancer (NSCLC). […] Four of the top 25 transcriptional/cellular pathways were related to the epithelial-mesenchymal transition (EMT) (ranks 1, 15, 23, 25 of FIG. 2). […] Low E-cadherin/high vimentin are well-defined markers of cells that have a mesenchymal phenotype as characterized for example, in any one of the following references: (Yauch et al., (2005) Cin Cancer Res 11:24; Savagner et al., (2010) Ann Oncol. 21(suppl 7): vii89; Thiery et al., (2002) Nature Reviews Cancer June vol 2:442).
# NCI-H1623 = experiment: as above
# Excerpt: as §1
# HCC15 = experiment: as above
# Excerpt: as §1
# NCI-H1734 = experiment: as above
# Excerpt: as §1
# NCI-H2122 = experiment: as above
# Excerpt: as §1
# NCI-H2081 = experiment: as above
# Excerpt: as §1
# NCI-H1975 = experiment: as above
# Excerpt: as §1
# A549 = experiment: as above
# Excerpt: as §1
# DMS-53 = experiment: as above; conditions: DMS-53 cell line
# Excerpt: as §1
# NCI-H1694 = experiment: as above
# Excerpt: as §1
# NCI-H82 = experiment: as above
# Excerpt: as §1
# SW900 = experiment: as above
# Excerpt: as §1
# NCI-H1155 = experiment: as above
# Excerpt: as §1
# CALU-6 = experiment: as above; conditions: CALU-6 cell line
# Excerpt: as §1
# NCI-H1048 = experiment: as above
# Excerpt: as §1
# NCI-H292 = experiment: as above
# Excerpt: as §1
# NCI-H774 = experiment: as above
# Excerpt: as §1
# NCI-H1437 = experiment: as above
# Excerpt: as §1
# NCI-H209 = experiment: as above
# Excerpt: as §1
# NCI-H358 = experiment: as above
# Excerpt: as §1
# NCI-H1299 = experiment: as above
# Excerpt: as §1
# NCI-H1373 = experiment: as above
# Excerpt: as §1
# NCI-H1651 = experiment: as above
# Excerpt: as §1
# NCI-H1666 = experiment: as above
# Excerpt: as §1
# NCI-H1770 = experiment: as above
# Excerpt: as §1
# NCI-H2030 = experiment: as above
# Excerpt: as §1
# NCI-H2405 = experiment: as above
# Excerpt: as §1
# NCI-H1355 = experiment: as above
# Excerpt: as §1
# NCI-H2107 = experiment: as above
# Excerpt: as §1
# NCI-H460 = experiment: as above
# Excerpt: as §1
# NCI-H1703 = experiment: as above
smiles,measurement,setting,value
O=C(Cc1ccccc1)Nc1nnc(CCSCCc2nnc(NC(=O)Cc3ccccc3)s2)s1 [BPTES],Max Inh @ 10 uM (%),"LXF-289; LXF-289, 10 uM",91%
same,Mu/max @10 uM,"LXF-289; LXF-289, 10 uM",−0.25
same,μ/μmax @10 uM,"LXF-289; LXF-289, 10 uM",−0.25
same,μ/μmax,LXF-289; LXF-289 cell line,−0.25
same,sensitivity to BPTES,A427 cells; A427 cells expressing empty vector or GAC-WT,retained significant sensitivity
same,sensitivity to BPTES,A427 cells; A427 cells with stable overexpression of the GAC-BR mutant,rendered resistant
same,μ/μmax,NCI-H1650,0.26
same,μ/μmax,NCI-H1623,0.79
same,Max Inh @ 10 uM (%),"HCC15; HCC15, 10 uM",40%
same,Mu/max @10 uM,"HCC15; HCC15, 10 uM",0.64
same,μ/μmax @10 uM,"HCC15; HCC15, 10 uM",0.64
same,μ/μmax,HCC15; HCC15 cell line,0.64
same,μ/μmax,NCI-H1734,−0.12
same,Max Inh @ 10 uM (%),"NCI-H2122; NCI-H2122, 10 uM",58%
same,Mu/max @10 uM,"NCI-H2122; NCI-H2122, 10 uM",0.56
same,μ/μmax @10 uM,"NCI-H2122; NCI-H2122, 10 uM",0.56
same,μ/μmax,NCI-H2122; NCI-H2122 cell line,0.56
same,μ/μmax,NCI-H2081,1.00
same,Max Inh @ 10 uM (%),"NCI-H1975; NCI-H1975, 10 uM",18%
same,Mu/max @10 uM,"NCI-H1975; NCI-H1975, 10 uM",0.75
same,μ/μmax @10 uM,"NCI-H1975; NCI-H1975, 10 uM",0.75
same,μ/μmax,NCI-H1975; NCI-H1975 cell line,0.75
same,Max Inh @ 10 uM (%),"A549; A549, 10 uM",73%
same,Mu/max @10 uM,"A549; A549, 10 uM",0.53
same,μ/μmax @10 uM,"A549; A549, 10 uM",0.53
same,μ/μmax,A549; A549 cell line,0.53
same,μ/μmax,DMS-53,0.93
same,μ/μmax,NCI-H1694,1.00
same,μ/μmax,NCI-H82,0.90
same,μ/μmax,SW900,0.70
same,μ/μmax,NCI-H1155,0.93
same,μ/μmax,CALU-6,0.82
same,μ/μmax,NCI-H1048,0.94
same,μ/μmax,NCI-H292,0.89
same,μ/μmax,NCI-H774,0.54
same,Max Inh @ 10 uM (%),"NCI-H1437; NCI-H1437, 10 uM",27%
same,Mu/max @10 uM,"NCI-H1437; NCI-H1437, 10 uM",0.81
same,μ/μmax @10 uM,"NCI-H1437; NCI-H1437, 10 uM",0.81
same,μ/μmax,NCI-H1437; NCI-H1437 cell line,0.81
same,μ/μmax,NCI-H209,0.64
same,sensitivity to BPTES,NCI-H358; NCI-H358,relatively BPTES insensitive
same,Max Inh @ 10 uM (%),"NCI-H358; NCI-H358, 10 uM",27%
same,Mu/max @10 uM,"NCI-H358; NCI-H358, 10 uM",0.66
same,μ/μmax @10 uM,"NCI-H358; NCI-H358, 10 uM",0.66
same,μ/μmax,NCI-H358; NCI-H358 cell line,0.66
same,μ/μmax,NCI-H1299,0.49
same,μ/μmax,NCI-H1373,0.79
same,μ/μmax,NCI-H1651,1.00
same,μ/μmax,NCI-H1666,1.00
same,μ/μmax,NCI-H1770,0.56
same,Max Inh @ 10 uM (%),"NCI-H2030; NCI-H2030, 10 uM",87%
same,Mu/max @10 uM,"NCI-H2030; NCI-H2030, 10 uM",0.37
same,μ/μmax @10 uM,"NCI-H2030; NCI-H2030, 10 uM",0.37
same,μ/μmax,NCI-H2030; NCI-H2030 cell line,0.37
same,μ/μmax,NCI-H2405,0.92
same,μ/μmax,NCI-H1355,0.78
same,μ/μmax,NCI-H2107,0.79
same,Max Inh @ 10 uM (%),"NCI-H460; NCI-H460, 10 uM",18%
same,Mu/max @10 uM,"NCI-H460; NCI-H460, 10 uM",0.92
same,μ/μmax @10 uM,"NCI-H460; NCI-H460, 10 uM",0.92
same,μ/μmax,NCI-H460; NCI-H460 cell line,0.92
same,Max Inh @ 10 uM (%),"NCI-H1703; NCI-H1703, 10 uM",87%
same,Mu/max @10 uM,"NCI-H1703; NCI-H1703, 10 uM",0.30
same,μ/μmax @10 uM,"NCI-H1703; NCI-H1703, 10 uM",0.30
same,μ/μmax,NCI-H1703; NCI-H1703 cell line,0.30
